Reference: patent US12065436B2, “Cardiac sarcomere inhibitors” (Cytokinetics, Inc., priority 2018, dated 2024)

Molecular target: bovine cardiac myofibrils (full-length cardiac myosin ATPase in the native sarcomere) (Bos taurus (Bovine), UniProt Q9BE39)
Assay: Skinned bovine cardiac myofibril ATPase assay (PK/LDH-coupled)
Format: biochemical
Details: Ca2+ activating to 75% of maximal rate; for CDMF75 IC15: concentration giving 15% inhibition; for IC50: read-out: CDMF75 IC50
Procedure, shortened: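 Inhibition of steady-state ATPase read at 340 nm through a PK/LDH-coupled NADH system (0.5 mM NADH, 1.5 mM PEP). Detergent-skinned bovine cardiac myofibrils, 1 mg/mL, were tested at pH 6.8 in PIPES/MgCl2 with 50 μM ATP and calcium adjusted to give pCa50 or pCa75 activation.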

Chain of bovine cardiac myofibrils (full-length cardiac myosin ATPase in the native sarcomere) (Q9BE39 whole entry): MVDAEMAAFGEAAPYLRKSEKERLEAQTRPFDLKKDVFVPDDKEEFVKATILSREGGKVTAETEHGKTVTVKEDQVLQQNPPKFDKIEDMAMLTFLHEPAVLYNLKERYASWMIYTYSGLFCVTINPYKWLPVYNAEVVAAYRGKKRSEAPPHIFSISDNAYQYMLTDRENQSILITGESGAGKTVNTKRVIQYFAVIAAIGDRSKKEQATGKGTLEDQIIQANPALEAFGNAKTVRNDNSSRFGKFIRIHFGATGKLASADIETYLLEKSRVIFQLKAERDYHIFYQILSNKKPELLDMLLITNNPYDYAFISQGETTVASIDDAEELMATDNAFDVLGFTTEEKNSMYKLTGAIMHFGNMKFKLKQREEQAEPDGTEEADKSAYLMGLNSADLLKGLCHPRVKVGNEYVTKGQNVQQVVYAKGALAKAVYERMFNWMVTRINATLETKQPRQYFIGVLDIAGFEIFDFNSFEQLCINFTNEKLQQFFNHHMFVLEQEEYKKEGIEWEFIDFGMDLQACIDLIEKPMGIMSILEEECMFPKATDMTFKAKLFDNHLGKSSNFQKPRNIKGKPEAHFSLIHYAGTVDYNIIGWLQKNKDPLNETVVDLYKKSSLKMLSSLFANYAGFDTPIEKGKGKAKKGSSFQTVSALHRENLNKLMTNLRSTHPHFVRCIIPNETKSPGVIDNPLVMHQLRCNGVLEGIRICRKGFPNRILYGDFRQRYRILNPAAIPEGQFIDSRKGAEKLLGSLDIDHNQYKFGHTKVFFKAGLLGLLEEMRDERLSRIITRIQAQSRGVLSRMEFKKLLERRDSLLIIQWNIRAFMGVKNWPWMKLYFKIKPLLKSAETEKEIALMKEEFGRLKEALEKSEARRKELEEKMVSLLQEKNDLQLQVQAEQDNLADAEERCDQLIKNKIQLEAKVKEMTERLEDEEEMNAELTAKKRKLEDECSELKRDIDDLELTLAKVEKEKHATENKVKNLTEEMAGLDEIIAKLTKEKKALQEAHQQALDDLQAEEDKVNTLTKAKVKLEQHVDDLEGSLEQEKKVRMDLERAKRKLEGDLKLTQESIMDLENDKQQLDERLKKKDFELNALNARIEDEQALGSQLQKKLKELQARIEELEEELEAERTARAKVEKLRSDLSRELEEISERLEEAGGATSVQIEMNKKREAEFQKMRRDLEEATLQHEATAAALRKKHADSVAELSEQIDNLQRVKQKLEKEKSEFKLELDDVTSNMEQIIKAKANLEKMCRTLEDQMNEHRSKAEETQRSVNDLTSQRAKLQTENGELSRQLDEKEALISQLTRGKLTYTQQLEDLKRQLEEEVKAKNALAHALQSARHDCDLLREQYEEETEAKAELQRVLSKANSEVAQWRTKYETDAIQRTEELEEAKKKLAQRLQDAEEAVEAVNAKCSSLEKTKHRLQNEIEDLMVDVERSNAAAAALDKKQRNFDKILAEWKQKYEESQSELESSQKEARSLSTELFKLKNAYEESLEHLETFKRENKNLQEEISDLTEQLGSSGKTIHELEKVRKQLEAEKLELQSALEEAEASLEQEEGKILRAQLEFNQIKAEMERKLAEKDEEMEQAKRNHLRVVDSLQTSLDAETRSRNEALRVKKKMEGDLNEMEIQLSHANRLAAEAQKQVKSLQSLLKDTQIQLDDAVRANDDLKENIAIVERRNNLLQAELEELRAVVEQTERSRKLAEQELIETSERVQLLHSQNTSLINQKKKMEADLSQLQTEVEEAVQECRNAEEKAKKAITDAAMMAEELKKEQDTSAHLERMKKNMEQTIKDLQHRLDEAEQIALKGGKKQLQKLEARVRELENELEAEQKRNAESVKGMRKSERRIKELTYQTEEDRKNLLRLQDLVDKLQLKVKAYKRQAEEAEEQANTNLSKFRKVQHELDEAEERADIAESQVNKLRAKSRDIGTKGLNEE
Chain of bovine cardiac myofibrils (full-length cardiac myosin ATPase in the native sarcomere) (P85100 whole entry partner): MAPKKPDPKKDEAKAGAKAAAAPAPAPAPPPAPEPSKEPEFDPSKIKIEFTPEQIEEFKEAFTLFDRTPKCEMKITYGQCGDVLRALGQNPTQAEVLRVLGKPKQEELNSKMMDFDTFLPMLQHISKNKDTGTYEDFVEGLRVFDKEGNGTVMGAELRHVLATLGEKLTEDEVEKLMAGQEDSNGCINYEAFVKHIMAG
Chain of bovine cardiac myofibrils (full-length cardiac myosin ATPase in the native sarcomere) (Q3SZE5 whole entry partner): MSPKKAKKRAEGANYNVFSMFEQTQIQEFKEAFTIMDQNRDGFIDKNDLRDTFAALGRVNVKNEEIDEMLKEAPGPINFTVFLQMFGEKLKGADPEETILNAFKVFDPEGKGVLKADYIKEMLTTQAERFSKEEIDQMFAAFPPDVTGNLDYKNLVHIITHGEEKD

Structure (SMILES)	CDMF75 IC15 [µM]	IC50 [µM]
O=C(N[C@@H]1CCc2cc(-c3noc(C(F)F)n3)ccc21)OC1CNC1 [Compound 291, azetidin-3-yl (R)-(5-(5-(difluoromethyl)-1,2,4-oxadiazol-3-yl)-2,3-dihydro-1H-inden-1-yl)carbamate]	17.3	> 39.2
CC(C)NC(=O)N[C@@H]1CCc2cc(-c3noc(C(F)F)n3)ccc21 [Compound 292, (R)-1-(5-(5-(difluoromethyl)-1,2,4-oxadiazol-3-yl)-2,3-dihydro-1H-inden-1-yl)-3-isopropylurea]	39.2	> 39.2
O=C(N[C@@H]1CCc2cc(-c3noc(C(F)F)n3)ccc21)C1CCCO1 (stereo partly drawn) [Compound 293, N-((R)-5-(5-(difluoromethyl)-1,2,4-oxadiazol-3-yl)-2,3-dihydro-1H-inden-1-yl)tetrahydrofuran-2-carboxamide]	20.4	> 39.2
O=C(N[C@@H]1CCc2cc(-c3noc(C(F)F)n3)ccc21)C1CCOC1 (stereo partly drawn) [Compound 294, N-((R)-5-(5-(difluoromethyl)-1,2,4-oxadiazol-3-yl)-2,3-dihydro-1H-inden-1-yl)tetrahydrofuran-3-carboxamide]	15.6	> 39.2
CNC(=O)N[C@@H]1CCc2cc(-c3noc(C(F)F)n3)ccc21 [Compound 295, (R)-1-(5-(5-(difluoromethyl)-1,2,4-oxadiazol-3-yl)-2,3-dihydro-1H-inden-1-yl)-3-methylurea]	4.9	> 39.2
CCNC(=O)N[C@@H]1CCc2cc(-c3noc(C(F)F)n3)ccc21 [Compound 296, (R)-1-(5-(5-(difluoromethyl)-1,2,4-oxadiazol-3-yl)-2,3-dihydro-1H-inden-1-yl)-3-ethylurea]	5.8	> 39.2
O=C(NC1CCC1)N[C@@H]1CCc2cc(-c3noc(C(F)F)n3)ccc21 [Compound 297, (R)-1-cyclobutyl-3-(5-(5-(difluoromethyl)-1,2,4-oxadiazol-3-yl)-2,3-dihydro-1H-inden-1-yl)urea]	39.2	> 39.2
O=C(NC1CCCC1)N[C@@H]1CCc2cc(-c3noc(C(F)F)n3)ccc21 [Compound 298, (R)-1-cyclopentyl-3-(5-(5-(difluoromethyl)-1,2,4-oxadiazol-3-yl)-2,3-dihydro-1H-inden-1-yl)urea]	39.2	> 39.2
CN(C)C(=O)N[C@@H]1CCc2cc(-c3noc(C(F)F)n3)ccc21 [Compound 299, (R)-3-(5-(5-(difluoromethyl)-1,2,4-oxadiazol-3-yl)-2,3-dihydro-1H-inden-1-yl)-1,1-dimethylurea]	6.7	30.9
O=C(N[C@@H]1CCc2cc(-c3noc(C(F)F)n3)ccc21)N1CCCC1 [Compound 300, (R)-N-(5-(5-(difluoromethyl)-1,2,4-oxadiazol-3-yl)-2,3-dihydro-1H-inden-1-yl)pyrrolidine-1-carboxamide]	12.3	> 39.2
O=C(N[C@@H]1CCc2cc(-c3noc(C(F)F)n3)ccc21)N1CCOCC1 [Compound 301, (R)-N-(5-(5-(difluoromethyl)-1,2,4-oxadiazol-3-yl)-2,3-dihydro-1H-inden-1-yl)morpholine-4-carboxamide]	9.5	> 39.2
CN1CCN(C(=O)N[C@@H]2CCc3cc(-c4noc(C(F)F)n4)ccc32)CC1 [Compound 302, (R)-N-(5-(5-(difluoromethyl)-1,2,4-oxadiazol-3-yl)-2,3-dihydro-1H-inden-1-yl)-4-methylpiperazine-1-carboxamide]	39.2	> 39.2
COC(=O)N[C@@H]1CCc2cc(-c3noc(C)n3)ccc21 [Compound 303, methyl (R)-(5-(5-methyl-1,2,4-oxadiazol-3-yl)-2,3-dihydro-1H-inden-1-yl)carbamate]	0.6	2.7
COC(=O)N[C@@H]1CCc2cc(-c3noc(C4CC4)n3)ccc21 [Compound 305, methyl (R)-(5-(5-cyclopropyl-1,2,4-oxadiazol-3-yl)-2,3-dihydro-1H-inden-1-yl)carbamate]	0.3	1.2
COCc1nc(-c2ccc3c(c2)CC[C@H]3NC(=O)OC)no1 [Compound 306, methyl (R)-(5-(5-(methoxymethyl)-1,2,4-oxadiazol-3-yl)-2,3-dihydro-1H-inden-1-yl)carbamate]	0.9	3.7
COC(=O)N[C@@H]1CCc2cc(-c3noc(C(C)C)n3)ccc21 [Compound 307, methyl (R)-(5-(5-isopropyl-1,2,4-oxadiazol-3-yl)-2,3-dihydro-1H-inden-1-yl)carbamate]	0.6	2.9
[2H]C([2H])([2H])c1nc(-c2ccc3c(c2)CC[C@H]3NC(=O)OC)no1 [Compound 308, methyl (R)-(5-(5-(methyl-d3)-1,2,4-oxadiazol-3-yl)-2,3-dihydro-1H-inden-1-yl)carbamate]	0.7	2.8

Structure (SMILES)	CDMF75 IC15 [µM]	IC50 [µM]
O=C(N[C@@H]1CCc2cc(-c3noc(C(F)F)n3)ccc21)C1CCC1 [Compound 309, (R)-N-(5-(5-(difluoromethyl)-1,2,4-oxadiazol-3-yl)-2,3-dihydro-1H-inden-1-yl)cyclobutanecarboxamide]	39.2	> 39.2
O=C(N[C@@H]1CCc2cc(-c3noc(C(F)F)n3)ccc21)C1CC1 [Compound 310, (R)-N-(5-(5-(difluoromethyl)-1,2,4-oxadiazol-3-yl)-2,3-dihydro-1H-inden-1-yl)cyclopropanecarboxamide]	2.9	11.3
[2H]C([2H])([2H])c1noc(-c2ccc3c(c2)OC[C@H]3NC(=O)c2cnn(C)c2)n1 [Compound 311, (S)-1-methyl-N-(6-(3-(methyl-d3)-1,2,4-oxadiazol-5-yl)-2,3-dihydrobenzofuran-3-yl)-1H-pyrazole-4-carboxamide]	1.8	6.3
[2H]C([2H])([2H])c1noc(-c2ccc3c(c2)OC[C@H]3NC(=O)c2ccnn2C)n1 [Compound 312, (S)-1-methyl-N-(6-(3-(methyl-d3)-1,2,4-oxadiazol-5-yl)-2,3-dihydrobenzofuran-3-yl)-1H-pyrazole-5-carboxamide]	0.7	2.4
Cc1noc(-c2ccc3c(c2)OC[C@H]3NC(=O)c2cnn(C)c2)n1 [Compound 313, (S)-1-methyl-N-(6-(3-methyl-1,2,4-oxadiazol-5-yl)-2,3-dihydrobenzofuran-3-yl)-1H-pyrazole-4-carboxamide]	1.6	6.5
Cc1noc(-c2ccc3c(c2)OC[C@H]3NC(=O)c2ccnn2C)n1 [Compound 314, (S)-1-methyl-N-(6-(3-methyl-1,2,4-oxadiazol-5-yl)-2,3-dihydrobenzofuran-3-yl)-1H-pyrazole-5-carboxamide]	0.7	2.4
O=C1C[C@H](C(=O)N[C@@H]2CCc3cc(-c4noc(C5CC5)n4)ccc32)N1 [Compound 315, (R)-N-((R)-5-(5-cyclopropyl-1,2,4-oxadiazol-3-yl)-2,3-dihydro-1H-inden-1-yl)-4-oxoazetidine-2-carboxamide]	6.1	26.4
O=C1C[C@@H](C(=O)N[C@@H]2CCc3cc(-c4noc(C5CC5)n4)ccc32)N1 [Compound 316, (S)-N-((R)-5-(5-cyclopropyl-1,2,4-oxadiazol-3-yl)-2,3-dihydro-1H-inden-1-yl)-4-oxoazetidine-2-carboxamide]	15.6	> 39.2
CCC(=O)N[C@@H]1CCc2cc(-c3noc(CC)n3)ccc21 [Compound 317, (R)-N-(5-(5-ethyl-1,2,4-oxadiazol-3-yl)-2,3-dihydro-1H-inden-1-yl)propionamide]	2.7	12.1
Cc1nc(-c2ccc3c(c2)CC[C@H]3NC(=O)OC2CCC2)no1 [Compound 319, cyclobutyl (R)-(5-(5-methyl-1,2,4-oxadiazol-3-yl)-2,3-dihydro-1H-inden-1-yl)carbamate]	1.3	5.3
Cc1nc(-c2ccc3c(c2)CC[C@H]3NC(=O)OCC(C)C)no1 [Compound 320, isobutyl (R)-(5-(5-methyl-1,2,4-oxadiazol-3-yl)-2,3-dihydro-1H-inden-1-yl)carbamate]	0.7	3.1
CCc1nc(-c2ccc3c(c2)CC[C@H]3NC(=O)OC2CCC2)no1 [Compound 321, cyclobutyl (R)-(5-(5-ethyl-1,2,4-oxadiazol-3-yl)-2,3-dihydro-1H-inden-1-yl)carbamate]	0.4	1.3
CCc1nc(-c2ccc3c(c2)CC[C@H]3NC(=O)OCC(C)C)no1 [Compound 322, isobutyl (R)-(5-(5-ethyl-1,2,4-oxadiazol-3-yl)-2,3-dihydro-1H-inden-1-yl)carbamate]	0.3	0.9
CCc1nc(-c2ccc3c(c2)CC[C@H]3NC(=O)OCC2CC2)no1 [Compound 323, cyclopropylmethyl (R)-(5-(5-ethyl-1,2,4-oxadiazol-3-yl)-2,3-dihydro-1H-inden-1-yl)carbamate]	0.3	0.9
CCc1nc(-c2ccc3c(c2)CC[C@H]3NC(=O)OCCOC)no1 [Compound 324, 2-methoxyethyl (R)-(5-(5-ethyl-1,2,4-oxadiazol-3-yl)-2,3-dihydro-1H-inden-1-yl)carbamate]	0.8	3.2
CCc1nc(-c2ccc3c(c2)CC[C@H]3NC(=O)OC2CCCC2)no1 [Compound 325, cyclopentyl (R)-(5-(5-ethyl-1,2,4-oxadiazol-3-yl)-2,3-dihydro-1H-inden-1-yl)carbamate]	0.5	1.9
